# Data as given in patent US8592455B2 (priority 2008, dated 2013).
# Like-named read-outs stand apart in the source and are kept apart here.
# What was measured:
# [1] = molecular target: T1, Pim1 kinase (Homo sapiens (Human), UniProt P11309); assay: biochemical
# [2] = molecular target: T1, Pim1 kinase; conditions: read-out: Pim1 IC50
# [3] = molecular target: Pim3 kinase (Homo sapiens (Human), UniProt Q86V86); conditions: read-out: Pim3 IC50
# T1 sequence (P11309 whole entry): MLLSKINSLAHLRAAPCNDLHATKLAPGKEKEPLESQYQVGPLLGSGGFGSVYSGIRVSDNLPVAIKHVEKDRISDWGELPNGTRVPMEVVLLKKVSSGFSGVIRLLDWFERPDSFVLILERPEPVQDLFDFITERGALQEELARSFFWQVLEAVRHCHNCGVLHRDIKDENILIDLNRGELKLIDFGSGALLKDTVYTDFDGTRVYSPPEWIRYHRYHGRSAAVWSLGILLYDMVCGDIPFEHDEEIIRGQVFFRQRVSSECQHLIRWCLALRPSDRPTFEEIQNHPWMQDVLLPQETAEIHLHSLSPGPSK
SMILES,IC50 [1] [nM],IC50 [2] [nM],IC50 [3] [nM]
"Nc1ccc(-c2c(F)cccc2F)nc1C(=O)Nc1cnccc1[C@@H]1CC[C@H](O)[C@H](N)C1 (stereo in doubt) [Example 102, 3-amino-N-(4-(3-amino-4-hydroxycyclohexyl)pyridin-3-yl)-6-(2,6-difluorophenyl)picolinamide]",1,–,–
"Cc1ccc(F)c(-c2cccc(C(=O)Nc3cnccc3[C@H]3C[C@@H](N)[C@@H](O)[C@@H](C)C3)n2)c1 [Example 74, N-(4-((1R,3R,4S,5S)-3-amino-4-hydroxy-5-methylcyclohexyl)pyridin-3-yl)-6-(2-fluoro-5-methylphenyl)picolinamide]",–,1,4
"C[C@H]1C[C@@H](c2ccncc2NC(=O)c2cccc(-c3c(F)cccc3F)n2)C[C@@H](N)[C@H]1O [Example 76, N-(4-((1R,3R,4S,5S)-3-amino-4-hydroxy-5-methylcyclohexyl)pyridin-3-yl)-6-(2,6-difluorophenyl)picolinamide]",–,1,2
"N[C@H]1CCC[C@@H](c2ccncc2NC(=O)c2ccc(F)c(-c3cccc(F)c3F)n2)C1 [Example 79, N-(4-((1R,3S)-3-aminocyclohexyl)pyridin-3-yl)-6-(2,3-difluorophenyl)-5-fluoropicolinamide]",–,2,3
"N[C@H]1CCC[C@@H](c2ccncc2NC(=O)c2nc(-c3c(F)cccc3F)ccc2F)C1 [Example 80, N-(4-((1R,3S)-3-aminocyclohexyl)pyridin-3-yl)-6-(2,6-difluorophenyl)-3-fluoropicolinamide]",–,6,7
"N[C@H]1CCC[C@@H](c2ccncc2NC(=O)c2ccc(F)c(-c3ccc(F)cc3F)n2)C1 [Example 82, N-(4-((1R,3S)-3-aminocyclohexyl)pyridin-3-yl)-6-(2,4-difluorophenyl)-5-fluoropicolinamide]",–,3,9
"N[C@@H]1C[C@H](c2ccncc2NC(=O)c2cccc(-c3ccccc3F)n2)CC[C@@H]1O [Example 83, N-(4-((1R,3R,4S)-3-amino-4-hydroxycyclohexyl)pyridin-3-yl)-6-(2-fluorophenyl)picolinamide]",–,4,5
"Nc1ccc(-c2c(F)cccc2F)nc1C(=O)Nc1cnccc1C1=CC(N)C(O)CC1 (stereo not drawn) [Example 92, 3-amino-N-(4-(trans)-3-amino-4-hydroxycyclohex-1-enyl)pyridin-3-yl)-6-(2,6-difluorophenyl)picolinamide]",–,2,5
Nc1ccc(-c2c(F)cccc2F)nc1C(=O)Nc1cnccc1C1=C[C@@H](N)[C@@H](O)CC1 [Example 93],–,1,5
"C[C@@H]1CN(c2ccncc2NC(=O)c2nc(-c3c(F)cccc3F)ccc2N)C[C@@H](N)[C@H]1O [Example 103, 3-amino-N-(4-((3R,4S,5R)-3-amino-4-hydroxy-5-methylpiperidin-1-yl)pyridin-3-yl)-6-(2,6-difluorophenyl)picolinamide]",–,2,4
"Cc1ccc(F)c(-c2cccc(C(=O)Nc3cnccc3[C@H]3C[C@@H](N)C[C@@H](C(F)(F)F)C3)n2)c1 [Example 108, N-(4-((1R,3R,5S)-3-amino-5-(trifluoromethyl)cyclohexyl)pyridin-3-yl)-6-(2-fluoro-5-methylphenyl)picolinamide]",–,1,3
"N[C@@H]1C[C@H](c2ccncc2NC(=O)c2ccc(F)c(C3CCCCC3)n2)C[C@H](C(F)(F)F)C1 [Example 111, N-(4-((1R,3R,5S)-3-amino-5-(trifluoromethyl)cyclohexyl)pyridin-3-yl)-6-cyclohexyl-5-fluoropicolinamide]",–,2,11
"C[C@H]1CN(c2ccncc2NC(=O)c2ccc(F)c(-c3ccccc3F)n2)C[C@@H](O)[C@@H]1O [Example 114, N-(4-((3R,4R,5S)-3,4-dihydroxy-5-methylpiperidin-1-yl)pyridin-3-yl)-5-fluoro-6-(2-fluorophenyl)picolinamide]",–,1,1
"C[C@H]1CN(c2ccncc2NC(=O)c2cccc(-c3c(F)cccc3F)n2)C[C@@H](O)[C@@H]1O [Example 115, 6-(2,6-difluorophenyl)-N-(4-((3R,4R,5S)-3,4-dihydroxy-5-methylpiperidin-1-yl)pyridin-3-yl)picolinamide]",–,1,1
"C[C@H]1CN(c2ccncc2NC(=O)c2ccc(F)c(-c3cccnc3)n2)C[C@@H](N)[C@@H]1O [Example 118, N-(4-((3R,4R,5S)-3-amino-4-hydroxy-5-methylpiperidin-1-yl)pyridin-3-yl)-3-fluoro-2,3′-bipyridine-6-carboxamide]",–,4,9
"C[C@H]1CN(c2ccncc2NC(=O)c2ccc(F)c(-c3ccncc3F)n2)C[C@@H](N)[C@@H]1O [Example 119, N-(4-((3R,4R,5S)-3-amino-4-hydroxy-5-methylpiperidin-1-yl)pyridin-3-yl)-3,3′-difluoro-2,4′-bipyridine-6-carboxamide]",–,1,2
"C[C@H]1CN(c2ccncc2NC(=O)c2ccc(F)c(-c3ccncc3)n2)C[C@@H](N)[C@@H]1O [Example 120, N-(4-((3R,4R,5S)-3-amino-4-hydroxy-5-methylpiperidin-1-yl)pyridin-3-yl)-3-fluoro-2,4′-bipyridine-6-carboxamide]",–,3,7
"COc1cc(F)c(-c2nc(C(=O)Nc3cnccc3[C@H]3C[C@@H](N)CC(C)(C)C3)ccc2F)c(F)c1 [Example 123, N-(4-((1R,5R)-5-amino-3,3-dimethylcyclohexyl)pyridin-3-yl)-6-(2,6-difluoro-4-methoxyphenyl)-5-fluoropicolinamide]",–,1,2
"N[C@H]1CCC[C@@H](c2ccncc2NC(=O)c2ccc(F)c(-c3c(F)ccc(O)c3F)n2)C1 [Example 124, N-(4-((1R,3S)-3-aminocyclohexyl)pyridin-3-yl)-6-(2,6-difluoro-3-hydroxyphenyl)-5-fluoropicolinamide]",–,1,1
"C[C@H]1C[C@@H](c2ccncc2NC(=O)c2ccc(F)c(-c3cccc(C(F)(F)F)c3F)n2)C[C@@H](N)[C@@H]1O [Example 127, N-(4-((1R,3R,4R,5S)-3-amino-4-hydroxy-5-methylcyclohexyl)pyridin-3-yl)-5-fluoro-6-(2-fluoro-3-(trifluoromethyl)phenyl)picolinamide]",–,11,27
"C[C@@H]1C[C@H](N)C[C@H](c2ccncc2NC(=O)c2ccc(F)c(-c3c(F)ccc(F)c3F)n2)C1 [Example 129, N-(4-((1R,3S,5S)-3-amino-5-methylcyclohexyl)pyridin-3-yl)-5-fluoro-6-(2,3,6-trifluorophenyl)picolinamide]",–,1,2
"Nc1cc(F)c(-c2ccncc2F)nc1C(=O)Nc1cnccc1[C@@H]1CCC[C@H](N)C1 [Example 136, 5-amino-N-(4-((1R,3S)-3-aminocyclohexyl)pyridin-3-yl)-3,3′-difluoro-2,4′-bipyridine-6-carboxamide]",–,2,9
"CC1CC(c2ccncc2NC(=O)c2ccc(F)c(-c3c(F)cccc3F)n2)=CC(O)C1 (stereo not drawn) [Example 137, 6-(2,6-difluorophenyl)-5-fluoro-N-(4-(3-hydroxy-5-methylcyclohex-1-enyl)pyridin-3-yl)picolinamide]",–,1,7
